Results from ChEMBL document CHEMBL5154943, “Crystallography-Guided Optimizations of the Keap1-Nrf2 Inhibitors on the Solvent Exposed Region: From Symmetric to Asymmetric Naphthalenesulfonamides” (J Med Chem, 2022).
In brackets after ≈: the same amount, converted by molar mass.

Legend:
[1] = Cmax in Sprague-Dawley rat at 20 mg/kg, IG measured upto 24 hrs by LC-MS analysis; format: ADME, organism-based; parameters: dose 20 mg/kg, time < 24 hrs, route ig; conditions: in vivo, po
[2] = Half life in Sprague-Dawley rat at 5 mg/kg, iv measured upto 24 hrs by LC-MS analysis; format: ADME, organism-based; conditions: in vivo
[3] = Half life in Sprague-Dawley rat at 20 mg/kg, IG measured upto 24 hrs by LC-MS analysis; format: ADME, organism-based; conditions: in vivo, po
Keap1/Nrf2 = Keap1/Nrf2 (Homo sapiens, UniProt Q14145); test: Inhibition of recombinant N-terminal His6-tagged human Keap1-Nrf2 (322 to 609 residues) (unknown origin) protein-protein interaction expressed in Escherichia coli (DE3) incubated for 60 mins by fluorescence anisotropy assay
Peritoneal macrophage = test: Cytotoxicity against mouse peritoneal macrophages assessed as reduction in cell viability measured after 24 hrs by Cell Titer-Blue assay; format: functional
[4] = Antiinflammatory activity against LPS-induced mouse peritoneal macrophage assessed as suppression of NO level pretreated with LPS followed by compound addition and measured after 24 hrs by Griess reagent based assay; format: functional, cell-based
[5] = Antiinflammatory activity against LPS-induced mouse peritoneal macrophage assessed as inhibition of TNF alpha level after 4 hrs by ELISA method; format: functional, cell-based
[6] = Aqueous solubility of the compound in PBS at pH 2 after 24 hrs by HPLC-UV analysis; format: physicochemical
[7] = Aqueous solubility of the compound in PBS at pH 7 after 24 hrs by HPLC-UV analysis; format: physicochemical
[8] = Aqueous solubility of the compound in PBS at pH 7.4 after 24 hrs by HPLC-UV analysis; format: physicochemical
[9] = Tmax in Sprague-Dawley rat at 20 mg/kg, IG measured for 24 hrs by LC-MS analysis; format: ADME, organism-based; conditions: in vivo, po
[10] = Tmax in Sprague-Dawley rat at 5 mg/kg, iv measured upto 24 hrs by LC-MS analysis; format: ADME, organism-based; conditions: in vivo
[11] = Cmax in Sprague-Dawley rat at 5 mg/kg, iv measured upto 24 hrs by LC-MS analysis; format: ADME, organism-based; parameters: dose 5 mg/kg, time < 24 hrs, route iv; conditions: in vivo
[12] = AUC (0 to 24 hrs) in Sprague-Dawley rat at 20 mg/kg, IG measured upto 24 hrs by LC-MS analysis; format: ADME, organism-based; parameters: time < 24 hrs, dose 20 mg/kg, route ig; conditions: in vivo, po
[13] = AUC (0 to 24 hrs) in Sprague-Dawley rat at 5 mg/kg, iv measured upto 24 hrs by LC-MS analysis; format: ADME, organism-based; parameters: time < 24 hrs, dose 5 mg/kg, route iv; conditions: in vivo
[14] = AUC(0 to infinity) in Sprague-Dawley rat at 20 mg/kg, IG measured upto 24 hrs by LC-MS analysis; format: ADME, organism-based; parameters: dose 20 mg/kg, time < 24 hrs, route ig; conditions: in vivo, po
[15] = AUC(0 to infinity) in Sprague-Dawley rat at 5 mg/kg, iv measured upto 24 hrs by LC-MS analysis; format: ADME, organism-based; parameters: dose 5 mg/kg, time < 24 hrs, route iv; conditions: in vivo
[16] = MRT(0 to 24 hrs) in Sprague-Dawley rat at 20 mg/kg, IG measured upto 24 hrs by LC-MS analysis; format: ADME, organism-based; conditions: in vivo, po
[17] = MRT(0 to 24 hrs) in Sprague-Dawley rat at 5 mg/kg, iv measured upto 24 hrs by LC-MS analysis; format: ADME, organism-based; conditions: in vivo
[18] = MRT (0 to infinity) in Sprague-Dawley rat at 20 mg/kg, IG measured upto 24 hrs by LC-MS analysis; format: ADME, organism-based; conditions: in vivo, po
[19] = MRT(0 to infinity) in Sprague-Dawley rat at 5 mg/kg, iv measured upto 24 hrs by LC-MS analysis; format: ADME, organism-based; conditions: in vivo
[20] = Oral bioavailability in Sprague-Dawley rat at 20 mg/kg measured upto 24 hrs by LC-MS analysis; format: ADME, organism-based; conditions: in vivo

Sequence of Keap1/Nrf2 (Q16236 whole entry, the tested form may be a part): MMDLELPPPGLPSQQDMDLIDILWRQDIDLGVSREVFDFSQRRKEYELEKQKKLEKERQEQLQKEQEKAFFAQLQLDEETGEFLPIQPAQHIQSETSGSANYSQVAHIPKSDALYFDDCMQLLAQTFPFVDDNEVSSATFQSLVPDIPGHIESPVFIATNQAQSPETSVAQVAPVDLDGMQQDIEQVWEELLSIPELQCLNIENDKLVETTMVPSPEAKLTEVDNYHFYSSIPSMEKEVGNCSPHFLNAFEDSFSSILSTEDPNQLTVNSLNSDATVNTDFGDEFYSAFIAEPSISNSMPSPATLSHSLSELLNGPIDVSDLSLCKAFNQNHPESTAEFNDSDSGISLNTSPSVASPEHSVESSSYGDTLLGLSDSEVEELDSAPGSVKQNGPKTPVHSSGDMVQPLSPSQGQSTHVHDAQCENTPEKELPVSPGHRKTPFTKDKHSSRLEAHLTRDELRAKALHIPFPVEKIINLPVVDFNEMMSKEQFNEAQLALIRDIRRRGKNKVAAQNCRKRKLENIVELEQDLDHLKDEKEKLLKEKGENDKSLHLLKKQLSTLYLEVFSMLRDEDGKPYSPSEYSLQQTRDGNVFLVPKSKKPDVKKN
Sequence of Keap1/Nrf2 (Q14145 whole entry, the tested form may be a part): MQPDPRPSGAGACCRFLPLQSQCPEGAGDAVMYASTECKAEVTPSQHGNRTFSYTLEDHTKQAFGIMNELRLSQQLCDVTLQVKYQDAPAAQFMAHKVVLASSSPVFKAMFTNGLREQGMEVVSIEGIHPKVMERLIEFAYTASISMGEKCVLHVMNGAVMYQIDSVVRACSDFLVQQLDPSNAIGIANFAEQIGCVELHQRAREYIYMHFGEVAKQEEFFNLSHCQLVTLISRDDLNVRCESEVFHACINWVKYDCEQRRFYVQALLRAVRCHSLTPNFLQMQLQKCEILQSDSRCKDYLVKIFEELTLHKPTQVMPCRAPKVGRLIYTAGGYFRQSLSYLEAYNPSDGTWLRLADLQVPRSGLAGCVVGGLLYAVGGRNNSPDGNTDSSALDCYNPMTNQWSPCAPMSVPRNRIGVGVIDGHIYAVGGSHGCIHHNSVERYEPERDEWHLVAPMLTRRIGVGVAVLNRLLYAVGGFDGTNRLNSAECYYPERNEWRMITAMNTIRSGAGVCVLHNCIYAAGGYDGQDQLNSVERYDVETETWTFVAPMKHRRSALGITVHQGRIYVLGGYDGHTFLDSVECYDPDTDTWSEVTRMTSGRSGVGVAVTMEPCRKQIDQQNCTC

## CCN1CCN(CCC(=O)Nc2ccc(S(=O)(=O)N(CC(N)=O)c3ccc(N(CC(N)=O)S(=O)(=O)c4ccc(OC)cc4)c4ccccc34)cc2)CC1
[1]
  Cmax: 708 ng/mL
[2]
  t1/2: 4.31 h
[3]
  half-life: 10.9 h
Keap1/Nrf2
  Kd: 210 nM
Peritoneal macrophage
  CC50: > 100000 nM
[4]
  EC50: 970 nM
[5]
  EC50: 1140 nM
[6]
  solubility at 24 h: 902 µg/mL (≈ 1180 µM)
[7]
  solubility at 24 h: 91.1 µg/mL (≈ 119 µM)
[8]
  solubility at 24 h: 49.3 µg/mL (≈ 64.4 µM)
[9]
  Tmax: 1.38 h
[10]
  Tmax: 0.72 h
[11]
  Cmax: 2630 ng/mL
[12]
  AUC(0-t) at 24 h: 3060 ng·h/mL
[13]
  AUC(0-t) at 24 h: 4560 ng·h/mL
[14]
  AUC(0-inf): 3700 ng·h/mL
[15]
  AUC: 4779.24 ng·h/mL
[16]
  MRT last at 24 h: 6.71 h
[17]
  MRT last at 24 h: 4.64 h
[18]
  MRT inf: 14 h
[19]
  MRT inf: 5.94 h
[20]
  bioavailability: 19.9%
